For assay [1], the system named is C. albicans CAF2-1 strain. In words: Anti-Candida activity, MIC measurement. The following applies: CAF21STRAIN, C. albicans CAF2-1, RPMI1640, 42-48 hours at 35° C., visual inspection, read-out: Anti-Candida Activity (minimum inhibitory concentration, MIC). It counts as cell-based. An outline of the steps:
(§1)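 C. albicans CAF2-1 was grown 48 h at 30° C. in SDB and diluted in RPMI1640 to 1.2×10^3 cells/mL. Frozen A. fumigatus Tsukuba was diluted to 4.5×10^3 cells/mL. Compounds, two-fold serially diluted in DMSO from 2.5 mg/mL, were cultured aerobically with fungi for 42-48 h at 35° C.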

Assay [2] concerns A. fumigatus Tsukuba strain. Put plainly: Anti-Aspergillus activity, MIC measurement. It counts as cell-based. The following applies: RPMI1640, 42-48 hours at 35° C., visual inspection, read-out: Anti-Aspergillus Activity (minimum inhibitory concentration, MIC). An outline of the steps:
as §1

Assay [3] has as its system C. albicans E81022 strain. Put plainly: Experimental systemic candidal infection model in mice. It counts as in vivo. The note with it: peroral, 3 times every 4 hours, female ICR mice, observed until 14 days after infection. How it is done: A standing culture of C. albicans E81022 strain was carried out for 48 hours at 30° C. in sabouraud dextrose agar medium (SDA), the recovered fungal cells were suspended in sterilized physiological saline. By counting the fungal number on cytometry plate, the suspension was diluted to 2×10^7 cells/mL with sterilized physiological saline to serve fungal inoculum.
The fungal inoculum was used in the amounts of 0.2 mL to inoculate 4.5 to 5.5 week-old female ICR mice in the tail vein (4×10^6 cells/mouse).
From 0.5 to 1 hour after fungal inoculation, 0.2 mL of agent solution (dissolved or suspended in sterilized physiological saline containing 6.5% dimethyl sulfoxide and 3.5% Tween 80) was administered into the stomach using a peroral probe, 3 times every 4 hours. The agent concentration was 2.5 mg/kg or 10 mg/kg, and the number of animals in one group was 5 animals.
The protective effect was determined by observing life/death until 14 days after infection and calculating the mean survival days.

Converted amounts (≈) assume the structure as drawn.

Consider `Nc1ccc(-c2cc(Cc3ccc(OCc4ccccc4)cc3)no2)c(N)n1` [Example 13, 3-(3-(4-Benzyloxy-benzyl)-isoxazol-5-yl)-pyridin-2,6-diamine], for which the MIC in assay [1] is 0.2 µg/mL (≈ 0.537 µM); in assay [2] it was 0.1 µg/mL (≈ 0.269 µM). Further, the “Mean Survival Days” value in assay [3] (2.5 mg/kg) worked out at 13.8 days; in assay [3] (10 mg/kg), 14.0 days.

As to `CCCCOCc1ccc(Cn2cc(-c3cccnc3N)cn2)cc1` [Example 33, 3-(1-(4-Butoxymethyl-benzyl)-1H-pyrazol-4-yl)-pyridin-2-ylamine], the figures for the MIC in assay [1] and in assay [2] were 0.39 µg/mL (≈ 1.16 µM) and 0.78 µg/mL (≈ 2.32 µM), respectively. In addition, the “Mean Survival Days” value in assay [3] (2.5 mg/kg) is 2.4 days; in assay [3] (10 mg/kg) it was 8.4 days.

In the case of `COCc1ccc(-c2cc(Cc3ccc(OCc4ccccn4)cc3)no2)c(N)n1` [Example 166, 6-Methoxymethyl-3-(3-(4-(pyridin-2-ylmethoxy)-benzyl)-isoxazol-5-yl)pyridin-2-ylamine], the MIC in assay [1] is 0.39 µg/mL (≈ 0.969 µM); in assay [2], 0.78 µg/mL (≈ 1.94 µM). Besides, the “Mean Survival Days” value in assay [3] (2.5 mg/kg) is 3.4 days; in assay [3] (10 mg/kg), 12.4 days.

With `Nc1ncccc1-c1cnn(Cc2ccc(COc3ccccn3)cc2)c1` [Example 32, 3-(1-(4-(Pyridin-2-yloxymethyl)-benzyl)-1H-pyrazol-4-yl)-pyridin-2-ylamine], the MIC in assay [1] stood at 0.2 µg/mL (≈ 0.56 µM); in assay [2], 0.78 µg/mL (≈ 2.18 µM). In addition, the “Mean Survival Days” value in assay [3] (2.5 mg/kg) amounted to 10.2 days; in assay [3] (10 mg/kg), 12.2 days.

On to `Nc1ccc(-c2cc(Cc3ccc(OCc4ccccc4)nc3)no2)c(N)n1` [Example 25, 3-(3-(6-benzyloxy-pyridin-3-ylmethyl)-isoxazol-5-yl)-pyridine-2,6-diamine], for which the MIC in assay [1] and in assay [2] was 0.2 µg/mL (≈ 0.536 µM) each time. Also, the “Mean Survival Days” value in assay [3] (2.5 mg/kg) is 12.2 days.

As to `CCCCOCc1ccc(Cc2cc(-c3ccc(N)nc3N)on2)cc1` [Example 16, 3-(3-(4-Butoxymethyl-benzyl)-isoxazol-5-yl)-pyridin-2,6-diamine], the MIC in assay [1] and in assay [2] was 0.39 µg/mL (≈ 1.11 µM) in each case. Also, the “Mean Survival Days” value came out at 4.8 days in assay [3] (2.5 mg/kg) and 12.8 days in assay [3] (10 mg/kg).

Take `Nc1ncccc1-c1cc(Cc2ccc(OCc3cccc(F)n3)cc2)no1` [Example 45, 3-(3-(4-(6-Fluoro-pyridin-2-ylmethoxy)-benzyl)-isoxazol-5-yl)-pyridin-2-ylamine]: the MIC in assay [1] is 0.39 µg/mL (≈ 1.04 µM); in assay [2], 0.2 µg/mL (≈ 0.531 µM). Besides, the “Mean Survival Days” value in assay [3] (2.5 mg/kg) came out at 10.6 days; in assay [3] (10 mg/kg), 10.8 days.

In the case of `Nc1ncccc1-c1cc(Cc2ccc(COc3ccccn3)cc2)no1` [Example 2, 3-(3-(4-(Pyridin-2-yloxymethyl)-benzyl)-isoxazol-5-yl)-pyridin-2-ylamine], the MIC was 0.05 µg/mL (≈ 0.14 µM) in assay [1] and 0.2 µg/mL (≈ 0.558 µM) in assay [2]. The “Mean Survival Days” value in assay [3] (2.5 mg/kg) was 13.2 days; in assay [3] (10 mg/kg), 14.0 days.

On to `Nc1ncccc1-c1cc(Cc2ccc(Cc3ccc(Cl)o3)cc2)no1` [Example 62, 3-(3-(4-(5-Chloro-furan-2-ylmethyl)-benzyl)-isoxazol-5-yl)-pyridin-2-ylamine], for which the MIC in assay [1] and in assay [2] was 0.2 µg/mL (≈ 0.547 µM) each time. Also, the “Mean Survival Days” value in assay [3] (2.5 mg/kg) came to 10.2 days.

As to `Nc1ccc(-c2cnn(Cc3ccc(OCc4ccccc4)cc3)c2)c(N)n1` [Example 36, 3-(1-(4-Benzyloxy-benzyl)-1H-pyrazol-4-yl)-pyridin-2,6-diamine], the MIC in assay [1] worked out at 0.39 µg/mL (≈ 1.05 µM); in assay [2], 0.78 µg/mL (≈ 2.1 µM). Also, the “Mean Survival Days” value in assay [3] (2.5 mg/kg) turned out to be 9.4 days; in assay [3] (10 mg/kg), 14.0 days.

For the compound `Nc1ncccc1-c1cc(Cc2ccc(OCc3cccc(Cl)n3)cc2)no1` [Example 52, 3-(3-(4-(6-Chloro-pyridin-2-ylmethoxy)-benzyl)-isoxazol-5-yl)-pyridin-2-ylamine], the MIC in assay [1] and in assay [2] was 0.39 µg/mL (≈ 0.993 µM) each time. In addition, the “Mean Survival Days” value in assay [3] (2.5 mg/kg) is 10.6 days; in assay [3] (10 mg/kg), 13.4 days.

Consider `Nc1ncccc1-c1cc(Cc2ccc(OCc3ccccn3)cc2)no1` [Example 9, 3-(3-(4-(Pyridin-2-ylmethoxy)-benzyl)-isoxazol-5-yl)-pyridin-2-ylamine], for which the figures for the MIC in assay [1] and in assay [2] were 0.2 µg/mL (≈ 0.558 µM) and 0.39 µg/mL (≈ 1.09 µM), respectively. Also, the entries for the “Mean Survival Days” value in assay [3] (2.5 mg/kg) and in assay [3] (10 mg/kg) were 12.8 days and 14.0 days, respectively.

For `Nc1ccc(-c2cc(Cc3ccc(Cc4ccc(Cl)o4)cc3)no2)c(N)n1` [Example 120, 3-(3-(4-(5-Chloro-furan-2-ylmethyl)-benzyl)-isoxazol-5-yl)-pyridin-2,6-diamine], the MIC in assay [1] turned out to be 0.39 µg/mL (≈ 1.02 µM); in assay [2], 0.2 µg/mL (≈ 0.525 µM). The “Mean Survival Days” value in assay [3] (2.5 mg/kg) amounted to 3.2 days; in assay [3] (10 mg/kg), 13.4 days.

Turning to `Cc1ccnc(OCc2ccc(Cc3cc(-c4ccc(N)nc4N)on3)cc2)c1` [Example 102, 3-(3-(4-(4-Methyl-pyridin-2-yloxymethyl)-benzyl)-isoxazol-5-yl)-pyridin-2,6-diamine], the MIC in assay [1] is 0.2 µg/mL (≈ 0.516 µM); in assay [2], 0.39 µg/mL (≈ 1.01 µM). Further, the “Mean Survival Days” value in assay [3] (2.5 mg/kg) was determined as 13.2 days; in assay [3] (10 mg/kg) it was 13.0 days.

As for `Nc1ccc(-c2cc(Cc3ccc(Oc4ccc(F)cc4)s3)no2)c(N)n1` [Example 155], the MIC in assay [1] and in assay [2] was 0.1 µg/mL (≈ 0.261 µM) throughout. The “Mean Survival Days” value was found to be 10.4 days in assay [3] (2.5 mg/kg) and 13.0 days in assay [3] (10 mg/kg).

Take `Nc1ncccc1-c1cc(Cc2ccc(COc3ccccc3)nc2)no1` [Example 54, 3-(3-(6-Phenoxymethyl-pyridin-3-ylmethyl)-isoxazol-5-yl)-pyridin-2-ylamine]: the MIC in assay [1] stood at 0.1 µg/mL (≈ 0.279 µM); in assay [2], 0.39 µg/mL (≈ 1.09 µM). Also, the entries for the “Mean Survival Days” value in assay [3] (2.5 mg/kg) and in assay [3] (10 mg/kg) were 13.0 days and 13.6 days, respectively.

In the case of `Nc1ncccc1-c1cc(Cc2ccc(OCc3ccccc3)cc2)no1` [Example 1, 3-(3-(4-Benzyloxy-benzyl)-isoxazol-5-yl)-pyridin-2-ylamine], the MIC in assay [1] and in assay [2] was 0.2 µg/mL (≈ 0.56 µM) in each case. Also, the figures for the “Mean Survival Days” value in assay [3] (2.5 mg/kg) and in assay [3] (10 mg/kg) were 12.2 days and 14.0 days, respectively.

Take `Nc1ncccc1-c1cc(Cc2ccc(OCc3ccc(F)cc3)nc2)no1` [Example 58, 3-(3-(6-(4-Fluoro-benzyloxy)-pyridin-3-ylmethyl)-isoxazol-5-yl)-pyridin-2-ylamine]: the MIC worked out at 0.78 µg/mL (≈ 2.07 µM) in assay [1] and 0.1 µg/mL (≈ 0.266 µM) in assay [2]. Further, the entries for the “Mean Survival Days” value in assay [3] (2.5 mg/kg) and in assay [3] (10 mg/kg) were 3.8 days and 12.0 days, respectively.

In the case of `Nc1ccc(-c2cc(Cc3ccc(OCc4ccc(F)cc4)nc3)no2)c(N)n1` [Example 116, 3-(3-(6-(4-Fluoro-benzyloxy)-pyridin-3-ylmethyl)-isoxazol-5-yl)-pyridin-2,6-diamine], the MIC in assay [1] was found to be 0.78 µg/mL (≈ 1.99 µM); in assay [2], 0.2 µg/mL (≈ 0.511 µM). Moreover, the “Mean Survival Days” value in assay [3] (2.5 mg/kg) was 4.6 days; in assay [3] (10 mg/kg), 12.6 days.

Turning to `Nc1ccc(-c2cc(Cc3ccc(COc4ccccn4)cc3)no2)c(N)n1` [Example 14], the MIC in assay [1] and in assay [2] was 0.39 µg/mL (≈ 1.04 µM) throughout. Besides, the “Mean Survival Days” value in assay [3] (2.5 mg/kg) is 13.4 days; in assay [3] (10 mg/kg), 14.0 days.

On to `Nc1ccc(-c2cc(Cc3ccc(Oc4cccc(F)c4)nc3)no2)c(N)n1` [Example 131, 3-(3-(6-(3-Fluoro-phenoxy)-pyridin-3-ylmethyl)-isoxazol-5-yl)-pyridin-2,6-diamine], for which the MIC in assay [1] and in assay [2] was 0.2 µg/mL (≈ 0.53 µM) throughout. For the same compound, the “Mean Survival Days” value was 12.6 days in assay [3] (2.5 mg/kg) and 12.8 days in assay [3] (10 mg/kg).

As to `Nc1ccc(-c2cc(Cc3ccc(COc4ccccn4)cc3)no2)cn1` [Example 176], the MIC in assay [1] and in assay [2] was 0.2 µg/mL (≈ 0.558 µM) each time. Besides, the “Mean Survival Days” value was 12.6 days in assay [3] (2.5 mg/kg) and 13.4 days in assay [3] (10 mg/kg).

As for `Nc1ccc(-c2cc(Cc3ccc(OCc4cccc(F)n4)cc3)no2)c(N)n1` [Example 104, 3-(3-(4-(6-Fluoro-pyridin-2-ylmethoxy)-benzyl)-isoxazol-5-yl)-pyridin-2,6-diamine], the MIC in assay [1] and in assay [2] was 0.78 µg/mL (≈ 1.99 µM) in each case. For the same compound, the “Mean Survival Days” value is 8.2 days in assay [3] (2.5 mg/kg) and 13.2 days in assay [3] (10 mg/kg).

`c1ccc(OCc2ccc(Cc3cc(-c4cccnc4)on3)cc2)nc1` [Example 202, 3-(3-(4-(Pyridin-2-yloxymethyl)-benzyl)-isoxazol-5-yl)-pyridine]: the MIC in assay [1] was 0.05 µg/mL (≈ 0.146 µM); in assay [2], 0.2 µg/mL (≈ 0.582 µM). For the same compound, the “Mean Survival Days” value in assay [3] (2.5 mg/kg) came to 2.4 days; in assay [3] (10 mg/kg), 10.0 days.

With `Nc1ncccc1-c1cnn(Cc2ccc(OCc3ccccn3)cc2)c1` [Example 192, 3-(1-(4-(Pyridin-2-ylmethoxy)-benzyl)-1H-pyrazol-4-yl)-pyridin-2-ylamine], the results for the MIC in assay [1] and in assay [2] were 0.39 µg/mL (≈ 1.09 µM) and 1.56 µg/mL (≈ 4.36 µM), respectively. In addition, the “Mean Survival Days” value was 3.2 days in assay [3] (2.5 mg/kg) and 9.4 days in assay [3] (10 mg/kg).

The values above are taken from patent US8158657B2, “Heterocycles substituted pyridine derivatives and antifungal agent containing thereof” (Eisai R&D Management Co., Ltd., priority 2005, dated 2012).
